Entries after “also recorded” stand apart in the source; their conditions may differ.
Tests used:
[1] = test system: human dermal fibroblasts; experiment: Protection of fibroblasts against ultraviolet radiation, cell viability by CellTiter-Glo; format: cell-based; conditions: 1 h pretreatment, 254 nm UV 20 mJ/cm^2, viability 24 h post-irradiation; result in words
Procedure: Human fibroblasts were obtained from Cell Applications Inc (Cat. # 106-05a) and were maintained in Dulbecco’s Modified Eagle medium (DMEM, Corning, Cat. #10-013-CV) with 10% fetal bovine serum (Gibco, Cat. #10082147) and 1% penicillin/streptomycin (Gibco, Cat. # 15070-063) in a humidified incubator with 5% CO2 at 37 °C. For ultraviolet radiation, fibroblasts were seeded in a 96-well plate at a density of 25,000 cells/well and maintained at 37 °C for 24 h. Cells were washed once with Hanks’ balanced salt solution (HBSS, Gibco, Cat. #14025-092), then treated for 1 h with different concentrations of compounds prepared in HBSS. Vitamin C (Sigma, Cat. # A5960) served as a positive control. Treated cells were exposed to ultraviolet light (UVP cross-linker, CL1000, 254 nm UV, 8 watts) at a total dose of 20 mJ/cm^2. Following irradiation, the HBSS was replaced with culture medium containing the same concentration of compounds as before irradiation, and cells were again maintained at 37 °C. Cell viability was measured at 24 h post-irradiation using CellTiter-Glo according to the manufacturer’s instructions (Promega, Cat.# G7571). Results were expressed as relative cell viability (%) with respect to control cells (cells without ultraviolet irradiation or compound treatment).

[2] = molecular target: T1, MAP/microtubule affinity-regulating kinase 4 (MARK4) (Homo sapiens, UniProt Q96L34); experiment: Enzyme activity assay (SAMDI-MS), MARK4; format: biochemical; conditions: 10 concentrations, 5 nM to 100 μM, compounds incubated with enzyme 30 min, result in words
T1 sequence (Q96L34 1-752): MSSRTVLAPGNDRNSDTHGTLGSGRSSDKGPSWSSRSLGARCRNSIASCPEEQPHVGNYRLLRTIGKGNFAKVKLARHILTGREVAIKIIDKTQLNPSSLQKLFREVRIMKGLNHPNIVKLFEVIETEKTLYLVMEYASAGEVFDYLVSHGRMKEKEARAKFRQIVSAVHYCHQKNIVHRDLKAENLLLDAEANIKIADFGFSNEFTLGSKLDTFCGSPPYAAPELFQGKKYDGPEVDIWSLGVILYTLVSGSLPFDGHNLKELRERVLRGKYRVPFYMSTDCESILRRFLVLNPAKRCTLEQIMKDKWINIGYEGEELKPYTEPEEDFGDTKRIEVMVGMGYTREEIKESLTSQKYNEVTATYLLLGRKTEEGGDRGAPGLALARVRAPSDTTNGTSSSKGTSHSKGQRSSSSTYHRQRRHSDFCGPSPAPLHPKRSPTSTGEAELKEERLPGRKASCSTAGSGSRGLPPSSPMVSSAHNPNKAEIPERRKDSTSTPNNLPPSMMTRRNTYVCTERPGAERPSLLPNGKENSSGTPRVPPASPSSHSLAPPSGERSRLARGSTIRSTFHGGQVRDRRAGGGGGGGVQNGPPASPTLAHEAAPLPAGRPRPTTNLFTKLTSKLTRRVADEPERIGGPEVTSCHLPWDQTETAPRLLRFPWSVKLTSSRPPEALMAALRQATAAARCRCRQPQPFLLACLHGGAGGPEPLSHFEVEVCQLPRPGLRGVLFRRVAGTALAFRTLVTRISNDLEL
Procedure: Enzyme screens were performed by SAMDI Tech (contract research organization); enzyme assays were performed in a 20 μL volume in 384-well low-volume polypropylene microtiter plates (Greiner Bio-One) at room temperature. The enzymes [Arginase 1 (ARG1), Lysine demethylase 4C (KDM4C), MAP/microtubule affinity-regulating kinase 4 (MARK4), Histone-Lysine N-methyltransferase (NSD2), Tyrosine-protein phosphatase non-receptor type 1 (PTP1B), and Sirtuin-3 (SIRT3)] were incubated with compounds for 30 min prior to initiation of the reaction by the addition of substrate and cofactors (if required). Reactions were quenched by the addition of 0.5% formic acid (final) with subsequent neutralization using 1% sodium bicarbonate (final). For SAMDI MS analysis, 2 μL of each reaction was transferred using a 384-channel automated liquid handler to SAMDI biochip arrays functionalized with a neutravidin-presenting self-assembled monolayer. The preparation of SAMDI biochip arrays has been previously described ([41], [42], [49]). The SAMDI arrays were incubated for 1 h in a humidified chamber to allow specific immobilization of the biotinylated substrates and products; they were then purified by washing with ultrafiltered water (50 μL/spot) and dried with compressed air. A matrix comprising α-Cyano-4-hydroxycinnamic acid in 80% acetonitrile: 20% aqueous ammonium citrate (10 mg/mL final) was applied in an automated format by dispensing 50 nL to each spot in the array. SAMDI MS was performed using reflector positive mode on an AB Sciex TOF-TOF 5800 System (AB Sciex, Framingham, MA) with 400 shots/spot analyzed in a random raster sampling. For data analysis, the area under the curves (AUCs) for the product peak and substrate peak were calculated using the TOF/TOF Series Explorer (AB Sciex), and the amount of product formed was calculated using the equation AUC product / (AUC product + AUC Substrate). Negative controls were pre-quenched with 0.5% formic acid (final). Lysozyme assay was performed using the manufacturer’s instructions (Biovision Lysozyme inhibitor screening kit K237). Flavonoids were acquired from Sigma-Aldrich and Seleckchem.
IC50 values of enzyme inhibition. Inhibition of the enzymes was measured at 10 concentration values in the range of 5 nM to 100 μM for each compound and enzyme, with two technical replicates; the percent inhibition values were determined by SAMDI software. Sigmoidal curves were fitted to the percent inhibition vs log10 (concentration) series, and IC50 values were determined at the crossing point of 50 % inhibition. […] First, for each IC50 value per compound and enzyme, a Z-score was calculated based on the log10 (IC50) value and that of the compounds that produced a successful readout for enzyme i , according to Equation 1: […]

| Compound | protection against the loss of cell viability caused by UV radiation [1] | inhibition of enzyme activity, MARK4 [2] | inhibition of enzyme activity, MARK4 ([2]; listed as Quercetin) | inhibition of enzyme activity, MARK4 ([2]; listed as Quercitin) |
| --- | --- | --- | --- | --- |
| O=c1c(O[C@@H]2O[C@H](CO)[C@@H](O)[C@H](O)[C@H]2O)c(-c2ccc(O)c(O)c2)oc2cc(O)cc(O)c12 [isoquercitrin] | concentration-dependent protection | inhibited | – | – |
| O=c1c(O)c(-c2ccc(O)c(O)c2)oc2cc(O)cc(O)c12 [quercetin] | concentration-dependent protection | – | inhibited | concentration-dependent inhibition |
| C[C@@H]1O[C@@H](Oc2c(-c3ccc(O)c(O)c3)oc3cc(O)cc(O)c3c2=O)[C@H](O)[C@H](O)[C@H]1O [quercitrin] | concentration-dependent protection | did not affect; also recorded: did not inhibit | – | – |
